Here are results for four compounds from ChEMBL document CHEMBL1149858, “Degradation-promoters of cellular inhibitor of apoptosis protein 1 based on bestatin and actinonin” (Bioorg Med Chem, 2008).

The source made the active and inactive calls. No cut-off for these calls is given here.

Test [1] concerns the target Baculoviral IAP repeat-containing protein 2 (Homo sapiens, UniProt Q13490). Kind of test: Promotion of flag-tagged cIAP1 degradation in human HT1080 cells assessed as decrease in cIAPI production after 3 hrs. Type of test: cell-based, HT-1080.
In test [2] the test system is HT-1080. Kind of test: Enhancement of actinomycin D-induced apoptosis of human HT1080 cells at 10 uM. It is filed as functional, cell-based.
Test [3] concerns HT-1080. Kind of test: Enhancement of cisplatin-induced apoptosis of human HT1080 cells at 10 uM. It is filed as functional, cell-based.
For test [4], the system named is HT-1080. The test is described as follows: Enhancement of etoposide-induced apoptosis of human HT1080 cells at 10 uM. It is filed as functional, cell-based.
The test system of test [5] is HT-1080. The test is described as follows: Enhancement of camptothecin-induced apoptosis of human HT1080 cells at 10 uM. Type of test: functional, cell-based.
In test [6] the test system is HT-1080. The test is described as follows: Enhancement of anti-Fas antibody CH11-induced apoptosis of human HT1080 cells at 30 uM after 24 hrs. Type of test: functional, cell-based.

Baculoviral IAP repeat-containing protein 2, sequence (Q13490 whole entry): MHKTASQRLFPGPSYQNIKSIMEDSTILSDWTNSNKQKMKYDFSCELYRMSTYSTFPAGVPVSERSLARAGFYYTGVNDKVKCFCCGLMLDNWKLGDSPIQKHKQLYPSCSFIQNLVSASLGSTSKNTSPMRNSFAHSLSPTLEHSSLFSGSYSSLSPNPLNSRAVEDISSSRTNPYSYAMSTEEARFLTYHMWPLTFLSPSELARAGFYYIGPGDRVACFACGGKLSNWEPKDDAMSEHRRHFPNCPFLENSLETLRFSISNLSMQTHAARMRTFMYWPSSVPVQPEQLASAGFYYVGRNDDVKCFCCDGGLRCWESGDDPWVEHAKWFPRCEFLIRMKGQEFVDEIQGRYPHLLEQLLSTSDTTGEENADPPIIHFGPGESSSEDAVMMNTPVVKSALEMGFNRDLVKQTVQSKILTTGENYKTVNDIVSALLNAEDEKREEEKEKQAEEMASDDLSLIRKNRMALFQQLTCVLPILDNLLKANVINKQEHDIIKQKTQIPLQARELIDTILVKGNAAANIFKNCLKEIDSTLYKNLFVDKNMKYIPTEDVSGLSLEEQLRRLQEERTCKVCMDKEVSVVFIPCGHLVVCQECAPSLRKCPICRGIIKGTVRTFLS

`CCCCC[C@H](CC(=O)NO)C(=O)N[C@H](C(=O)OC)C(C)(C)C`: the IC50 in test [1] is over 20 µM.
Consider `COC(=O)[C@H](CC(C)C)NC(=O)[C@H](N)CC(=O)NO`, for which, in test [1] (HT-1080), the outcome was inactive.
For `CCCCC[C@H](CC(=O)NO)C(=O)N[C@@H](C)C(=O)OC`, the result in test [2], in test [3], in test [4] and in test [5] was Active.
On to `COC(=O)[C@H](CC(C)C)NC(=O)[C@@H](O)[C@H](N)Cc1ccccc1`, for which the outcome in test [6], in test [2], in test [3], in test [4] and in test [5] was Active.

The IC50 is the midpoint of a concentration-inhibition curve.
